Activity calls are given as the source filed them. The rule behind the calls is not given here.
What was measured:
Kir3.1/Kir3.4 = molecular target: T1, Kir3.1/Kir3.4 (Homo sapiens, UniProt P48544+P48549); test: Activation of GIRK1/4 (unknown origin) by thallium-flux based assay; type: protein-complex assay
T1 sequence (P48549 whole entry): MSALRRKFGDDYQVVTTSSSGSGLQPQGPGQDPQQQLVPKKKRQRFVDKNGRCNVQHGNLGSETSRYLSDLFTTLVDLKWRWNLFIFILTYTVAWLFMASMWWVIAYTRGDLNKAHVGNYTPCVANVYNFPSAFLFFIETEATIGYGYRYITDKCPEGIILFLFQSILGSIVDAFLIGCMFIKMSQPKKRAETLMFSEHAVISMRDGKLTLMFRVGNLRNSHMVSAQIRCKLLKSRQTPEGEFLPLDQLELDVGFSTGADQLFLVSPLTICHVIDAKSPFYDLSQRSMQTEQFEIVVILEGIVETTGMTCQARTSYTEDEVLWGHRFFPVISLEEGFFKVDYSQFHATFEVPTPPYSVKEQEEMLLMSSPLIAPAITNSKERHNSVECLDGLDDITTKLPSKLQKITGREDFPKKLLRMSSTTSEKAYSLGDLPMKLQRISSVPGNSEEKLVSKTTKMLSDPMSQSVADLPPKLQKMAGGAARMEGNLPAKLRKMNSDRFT
T1 sequence (P48544 whole entry): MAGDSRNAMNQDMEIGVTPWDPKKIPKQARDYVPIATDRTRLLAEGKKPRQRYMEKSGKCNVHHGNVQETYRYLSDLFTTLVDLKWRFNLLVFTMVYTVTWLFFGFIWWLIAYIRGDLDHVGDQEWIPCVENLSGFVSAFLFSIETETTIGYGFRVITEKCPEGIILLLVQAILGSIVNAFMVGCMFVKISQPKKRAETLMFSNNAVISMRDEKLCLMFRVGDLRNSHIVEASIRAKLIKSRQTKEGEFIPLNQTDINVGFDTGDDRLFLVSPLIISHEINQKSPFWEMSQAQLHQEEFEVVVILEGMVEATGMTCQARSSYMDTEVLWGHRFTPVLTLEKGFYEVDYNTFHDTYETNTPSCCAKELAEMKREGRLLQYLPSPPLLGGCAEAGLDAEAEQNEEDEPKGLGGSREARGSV

[1] = molecular target: Kir3.1/Kir3.4 (Homo sapiens) (UniProt P48549+P48544); test: Activation of GIRK1/4 (unknown origin) by thallium-flux based assay relative to ML297; type: protein-complex assay
Kir3.1/Kir3.2 = molecular target: T2, Kir3.1/Kir3.2 (Homo sapiens, UniProt P48051+P48549); test: Activation of GIRK1/2 (unknown origin) by thallium-flux based assay; type: protein-complex assay
T2 sequence (P48549 whole entry): T1 sequence (P48549 whole entry)
T2 sequence (P48051 whole entry): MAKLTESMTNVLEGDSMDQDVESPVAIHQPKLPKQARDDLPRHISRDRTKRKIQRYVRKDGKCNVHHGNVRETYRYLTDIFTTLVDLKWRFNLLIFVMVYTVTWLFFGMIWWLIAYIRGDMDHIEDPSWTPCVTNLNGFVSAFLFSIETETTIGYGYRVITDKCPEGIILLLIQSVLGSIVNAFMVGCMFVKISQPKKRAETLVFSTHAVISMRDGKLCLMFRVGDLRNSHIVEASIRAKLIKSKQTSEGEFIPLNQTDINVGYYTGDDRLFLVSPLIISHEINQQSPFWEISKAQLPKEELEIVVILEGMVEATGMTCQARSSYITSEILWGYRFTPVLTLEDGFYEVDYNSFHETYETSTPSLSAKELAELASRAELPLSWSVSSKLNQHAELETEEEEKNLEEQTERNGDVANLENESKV

[2] = molecular target: Kir3.1/Kir3.2 (Homo sapiens) (UniProt P48549+P48051); test: Activation of GIRK1/2 (unknown origin) by thallium-flux based assay relative to ML297; type: protein-complex assay
[3] = Stability in rat microsomes assessed as compound remaining measured after 90 mins; type: ADME, Microsome; conditions: read-out: Stability
[4] = molecular target: Kir3.2/Kir3.3 (Homo sapiens) (UniProt P48051+Q92806); test: Modulation of GIRK2/3 (unknown origin) by thallium-flux based assay; type: protein-complex assay

`Cc1cc(NC(=O)Nc2cc(C3CC3C)nn2CC(F)(F)F)ccc1F` (stereo unspecified) gave an EC50 (Kir3.1/Kir3.4) of 1200 nM, an Efficacy [1] of 35% and an EC50 (Kir3.1/Kir3.2) of 700 nM. It also gave an Efficacy [2] of 81%.
In the case of `Cc1cc(NC(=O)Nc2ccc(F)c(F)c2)n(-c2ccccc2)n1`, the remaining at […] [3] is reported as 45% and the Activity [4] is reported as “inactive”.
`CC1CC1c1cc(NC(=O)Nc2ccc(Cl)cc2)n(CC(F)(F)F)n1` (stereo unspecified) gave an EC50 (Kir3.1/Kir3.4) of 1800 nM, an Efficacy [1] of 100% and an EC50 (Kir3.1/Kir3.2) of 150 nM. It also gave an Efficacy [2] of 66%.
`CC1CC1c1cc(NC(=O)Nc2ccc(C(F)(F)F)cc2)n(CC(F)(F)F)n1` (stereo unspecified) showed an EC50 (Kir3.1/Kir3.4) of 2000 nM, an Efficacy [1] of 100% and an EC50 (Kir3.1/Kir3.2) of 310 nM. The Efficacy [2] was 70%.
`Cc1ccc(NC(=O)Nc2cc(C3CC3C)nn2CC(F)(F)F)cc1` (stereo unspecified) showed an EC50 (Kir3.1/Kir3.4) of 2300 nM, an Efficacy [1] of 100% and an EC50 (Kir3.1/Kir3.2) of 270 nM. For the same compound, the Efficacy [2] was 67%.
Work on `CC1CC1c1cc(NC(=O)Nc2ccc(F)c(F)c2)n(CC(F)(F)F)n1` (stereo unspecified) yielded an EC50 (Kir3.1/Kir3.4) of 4900 nM, an Efficacy [1] of 112% and an EC50 (Kir3.1/Kir3.2) of 4900 nM. The Efficacy [2] was 100%.
`CC1CC1c1cc(NC(=O)Nc2cccc(F)c2)n(CC(F)(F)F)n1` (stereo unspecified) gave an EC50 (Kir3.1/Kir3.4) of 1000 nM, an Efficacy [1] of 100% and an EC50 (Kir3.1/Kir3.2) of 310 nM. The Efficacy [2] was 101%.
